Source: patent US20240002350A1, “PROTEIN AND LIPID THERAPEUTIC TARGETS” (UNIVERSITY OF PITTSBURGH-OF THE COMMONWEALTH SYSTEM OF …, priority 2020, published 2024)
Like-named read-outs stand apart in the source and are kept apart here.

Key:
[1] = test system: HOO-AA-PE; test: RSL3-induced accumulation of pro-ferroptotic HOO-AA-PE in vitro; format: cell-based
Excerpt: (§1) FIGS. 7A-7C show 15LOX/[…] complex inhibitor, NCGC00599973-01.
(§2) It was established that a change in substrate specificity of 15LOX is achieved upon complex formation with PEBP1 whereby structural rearrangements are mainly responsible for the selectivity and specificity leading to the formation of 15-HOO-AA-PE as the oxidation product. Thus, new selective anti-ferroptotic inhibitors of 15LOX/PEBP1 complex were designed. These inhibitors should not interfere with oxidation of free AA, DPA, DHA. […] The compound is a poor inhibitor of 15LOX alone with free AA as a substrate. […] Site 1 is at 15LOX/PEBP1 binding interface (binding energy −10.1 kcal/mol) and site 2 is at catalytic site (binding energy −8.9 kcal/mol).

[2] = test system: whole body irradiation (9.25Gy); test: Survival after whole body irradiation; format: in vivo; details: oxidant injury induced by ionizing radiation
Excerpt: as §1, §2

[3] = test system: 15LOX/PEBP1 complex; test: Inhibition of activity of 15LOX/PEBP1 complex; format: biochemical
Excerpt: as §2
(§3) Development and testing of new compounds that inhibit 15LOX/PEBP1 complex activity. A combination of computational and experimental studies are used. […] Computer modeling considers specific features of organization of 15LOX/PEBP1 complexes and positioning of AA-PE as well as regio-specific oxygenation of AA-residues at 15th carbon. […] The compounds that inhibit cell death by at least 50% are then evaluated for their effects on AA-PE and AA oxidation by 15LOX/PEBP1 complex and 15LOX alone, respectively, by LC-MS. […]

[4] = test system: 15LOX alone; test: Inhibition of 15LOX alone with free AA as a substrate; format: biochemical; details: 20 μM
Excerpt: as §2, §3

[5] = test system: ferroptosis triggered by RSL3 (GPX4 inhibition) or Erastin (GSH depletion) in cells; test: Suppression of ferroptosis triggered by RSL3 or Erastin in cells; format: cell-based; details: read-out: half maximal activity, suppression of ferroptosis
Method: as §1
FER.1 (500 nM) is positive control. Insert: Chemical formula of two of the compounds.
as §2

[6] = test system: 15LOX/PEBP1; test: Potency of 15LOX/PEBP1 inhibitors with anti-ferroptotic effect (Table 1); format: cell-based
Excerpt: Development and testing of new compounds that inhibit 15LOX/PEBP1 complex activity. A combination of computational and experimental studies are used. […] Computer modeling considers specific features of organization of 15LOX/PEBP1 complexes and positioning of AA-PE as well as regio-specific oxygenation of AA-residues at 15th carbon. […] It has been shown that: i) binding interface of 15LOX in 15LOX/PEBP1 complex includes a helix on 15LOX (α2) and kinase binding epitope (D144, H145, R146) on PEBP1 (FIG. 8); and ii) interfacial interactions play a pivotal role in allosterically altering conformational dynamics of 15LOX in complex, and its substrate specificity. Analysis of change in access to catalytic site upon PEBP1 binding, using elastic network models indicates needed sites at 15LOX/PEBP1 binding interface. Dynamics simulations are also performed, for 15LOX alone and 15LOX/PEBP1 complex. An effective inhibitor, NCG-01, with in vivo activity has been indicated. Several other 15LOX/PEBP1 inhibitors with anti-ferroptotic effect (FIG. 9) have been identified. To test the effectiveness of compounds identified from the computational screen, RSL3 and mechanical stretch models with LDH and PI assays as a primary outcome are performed. The compounds that inhibit cell death by at least 50% are then evaluated for their effects on AA-PE and AA oxidation by 15LOX/PEBP1 complex and 15LOX alone, respectively, by LC-MS. Evaluation of the effect of compounds in suppressing AA-PE-OOH formation in cells upon proferroptotic stimuli is also performed.

[7] = test system: neurons; test: Severe mechanical stretch injury in neurons; format: cell-based, rat; details: 3-4 psi; Fer-1 0.4 μM, Triacsin C 10 μM, baicalein 5 μM
Method: Mean+SD, N=4/group, *p<0.05 vs 0 h. […] Mean±SD, N=3-4/group, *p<0.05 vs control, #p<0.05 vs vehicle. […] Mean+SD, N=4/group, *p<0.05 vs vehicle.
(§4) Time course studies (0, 4, 8, 24 and 72 h) of TBI-induced changes in i) PE oxidation (oxidative lipidomics); ii) expression and activity of 15LOX, PEBP1, ACSL4, LPCAT3, iPLA2β and GPX4 (western blot); iii) formation of 15LOX/PEBP1 complexes (dual object recognition); and iv) GSH levels (fluorescent assay) will be performed as follows. An established model of in vitro TBI, severe mechanical stretch injury in primary cortical neurons, can be used. In brief, cortical neurons are cultured on 0.05% poly-D-lysine hydrobromide coated silicone substrate wells, and subjected to a computer controlled quantifiable mechanical insult by displacing the silicone substrate over a hollowed platform. In vivo TBI is induced by severe CCI (6-mm impactor tip, velocity of ±0.2 m/secs, deformation depth of 2.5 mm, impact duration of 50 msecs) to left parietal cortex in male and female PND 17 rats. To maximize rigor and reproducibility, animals are assigned to either sham (anesthesia and craniotomy) or CCI groups by block randomization. To ensure appropriate sample size for robustness, power analyses are performed in each experimental context. A sample size of 5 is preferred to detect a 25% difference in PE-OOH between CCI and control based on standard deviation observed in the experiments with an alpha of 0.05 and power of 0.80. Group assignments are blinded to the investigators who perform biochemical and histological endpoints. Statistical differences are analyzed using one-way ANOVA with post-hoc comparisons between groups if overall p<0.05 as appropriate. To address biological variability, both sexes are included.

[8] = test system: PND17 rats; test: Controlled cortical impact (CCI) TBI model in PND17 rats; format: in vivo, rat
Method: as §4
Histological outcome assessment. Brains are quantitatively analyzed for total number of specific cell types and lesion volume using unbiased stereology as described. Diagnostic of ferroptosis in vivo are: 1) accumulation of doubly and triply oxygenated AA-PE species; 2) increased ACSL4; 3) decreased GPX4 activity or deficiency of GSH; 4) increased activity and expression of 15LOX; and 5) high levels of 15LOX-PEBP1 co-localization detectable by dual object recognition. […] TUNEL staining is used to quantify cell death. TUNEL is commonly used to detect apoptotic cells. However, cells undergoing other types of regulated death, including ferroptosis, are also TUNEL positive. In order to determine the apoptotic cell death, staining with cleaved caspase-3 antibody is performed.
Neurocognitive function is assessed by novel object recognition (NOR) and MWM (Morris Water Maze) tests. For NOR testing, rat is placed in a small enclosure with two similar objects and allowed to explore for a 35 min habituation phase. […] Percent time exploring original vs. novel object is recorded (2 min max). […] Visible platform performance and memory retention in a single probe trial on d17 are assessed. […]

Fc1cccc(-n2cc(-c3ccccc3)nc2SCc2ccc(C(F)(F)F)cc2)c1 [Compound 12, 1-(3-fluorophenyl)-4-phenyl-2-((4-(trifluoromethyl)benzyl)thio)-1H-imidazole]
RSL3-induced accumulation of pro-ferroptotic HOO-AA-PE [1]: suppresses
survival [2]: improves survival
activity of 15LOX/PEBP1 complex [3]: inhibits activity
inhibition of 15LOX alone [4]: ~4.5%
EC50 ([5]; ferroptosis triggered by Erastin (GSH depletion) in cells): 140 nM
EC50 ([5]; ferroptosis triggered by RSL3 (GPX4 inhibition) in cells): 175 nM
Potency [6]: ++ (++ = 101-1000 nM)

COc1cc(CNc2nc(-c3ccccc3)cn2-c2cccc(F)c2)ccc1C(F)(F)F [Compound 67, 1-(3-fluorophenyl)-N-(3-methoxy-4-(trifluoromethyl)benzyl)-4-phenyl-1H-imidazol-2-amine]
Potency [6]: ++ (++ = 101-1000 nM)

Fc1cccc(-n2cc(-c3ccccc3)nc2NCc2ccc(C(F)(F)F)c(Cl)c2)c1 [Compound 68, N-(3-chloro-4-(trifluoromethyl)benzyl)-1-(3-fluorophenyl)-4-phenyl-1H-imidazol-2-amine]
Potency [6]: ++ (++ = 101-1000 nM)

Cc1cc(CNc2nc(-c3ccccc3)cn2-c2cccc(F)c2)ccc1C(F)(F)F [Compound 69, 1-(3-fluorophenyl)-N-(3-methyl-4-(trifluoromethyl)benzyl)-4-phenyl-1H-imidazol-2-amine]
Potency [6]: ++ (++ = 101-1000 nM)

CCOC(=O)c1ccc(NC2CCCCC2)c(N)c1 [Fer-1]
cell death after severe mechanical stretch injury [7]: rescued

CCC/C=C/C/C=C/C=C/C=N/NN=O [Triacsin C]
cell death after severe mechanical stretch injury [7]: rescued
neurodegeneration assessed by FJB positivity ([8]; i.c.v. administration after CCI, 24 h post-CCI): attenuated neurodegeneration

O=c1cc(-c2ccccc2)oc2cc(O)c(O)c(O)c12 [baicalein]
cell death after severe mechanical stretch injury [7]: rescued
AA-PE oxidation ([8]; 50 mg/kg i.p. 15 min after CCI): decreased
functional deficits in MWM task ([8]; 50 mg/kg i.p. 15 min after CCI): attenuated
hippocampal TUNEL positivity ([8]; 50 mg/kg i.p. 15 min after CCI): attenuated
